Measured values as given in US6380164B1, “Method for treating cytokine mediated hepatic injury” (University of Kentucky Research Foundation, priority 1999, dated 2002).

Test system: Male BALB/c HSD mice
Experiment: Survival of mice rendered hepatotoxic by LPS/GAL treatment (hepatic failure / septic shock model)
Format: in vivo
Conditions: for survival time compared to mice receiving LPS/GAL only: mice made septic by LPS/GAL treatment, 4 mg/kg intraperitoneal x5, result in words; for SURVIVAL 15 Hours (number of surviving mice) / SURVIVAL 15 Hours (percent of mice) / SURVIVAL 20 Hours (number of surviving mice) / SURVIVAL 20 Hours (percent of mice) / SURVIVAL 40 Hours (number of surviving mice) / SURVIVAL 40 Hours (percent of mice) / SURVIVAL 65 Hours (number of surviving mice) / SURVIVAL 65 Hours (percent of mice): n=15 mice, 4 mg/kg intraperitoneal at 0 h, 2 h, 4 h, 6 h and 7.5 h, LPS/GAL at 6.5 h; for SURVIVAL 15 Hours (number of surviving mice) / SURVIVAL 15 Hours (percent of mice): 15 h after the last injection; for SURVIVAL 20 Hours (number of surviving mice) / SURVIVAL 20 Hours (percent of mice): 20 h after the last injection; for SURVIVAL 40 Hours (number of surviving mice) / SURVIVAL 40 Hours (percent of mice): 40 h after the last injection; for SURVIVAL 65 Hours (number of surviving mice) / SURVIVAL 65 Hours (percent of mice): 65 h after the last injection
Protocol: Hepatic failure was induced in mice by intraperitoneal injections of a mixture of lipopolysaccharide (LPS) ([…]) and D-galactosamine (GAL) (700 mg/kg) to form LPS/GAL. LPS is a bacterial endotoxin that is a major stimulus for production of many cytokines, particularly tumor necrosis factor (TNF), thought to be involved in liver injury. GAL is an amino sugar that sensitizes hepatocytes by depleting the base uridine and thus preventing hepatic transcription, and sensitizes animals to normally innocuous amounts of endotoxin or TNF. The LPS/GAL treatment induces fulminate hepatic and multiorgan failure, and serves as a model for septic shock. The major effects of LPS/GAL are elicited by the inflammatory cytokine TNF-α. Hepatocytes sensitized to TNF-α then undergo apoptosis or programmed cell death in response to inflammatory processes.
Mice were treated with deltorphin and were subsequently rendered hepatotoxic by LPS/GAL treatment. An emulsion of deltorphin I SEQ ID NO:1 (Tyr-D-Ala-Phe-Asp-Val-Val-Gly-NH2) was prepared at a concentration of 80 μg/200 μl in sterile phosphate buffered saline (PBS). An emulsion of DADLE (Tyr-D-Ala-Gly-Phe-D-Leu-enkephalin) was also prepared at a concentration of 80 μg/200 μl in sterile PBS. Male BALB/c HSD mice were treated by intraperitoneal injections according to the following protocol. Control mice (n=7) received only LPS/GAL (280 μl) at 6.5 h. Deltorphin I SEQ ID NO:1 treated mice (n=15) received injections of 4 mg/kg deltorphin I SEQ ID NO:1 at 0 h, 2 h, 4 h, 6 h and 7.5 h and received an LPS/GAL injection at 6.5 h. DADLE treated mice (n 15) received 4 mg/kg DADLE at 0 h, 2 h, 4 h, 6 h and 7.5 h and received an LPS/GAL injection at 6.5 h.
Both control and treated mice were monitored at 15 h, 20 h, 40 h and 65 h after the last injection.

Row | Molecule | survival time compared to mice receiving LPS/GAL only | SURVIVAL 15 Hours (number of surviving mice) | SURVIVAL 15 Hours (percent of mice) | SURVIVAL 20 Hours (number of surviving mice) | SURVIVAL 20 Hours (percent of mice) | SURVIVAL 40 Hours (number of surviving mice) | SURVIVAL 40 Hours (percent of mice) | SURVIVAL 65 Hours (number of surviving mice) | SURVIVAL 65 Hours (percent of mice)
1 | CC(C)C[C@@H](NC(=O)[C@H](Cc1ccccc1)NC(=O)CNC(=O)[C@@H](C)NC(=O)[C@@H](N)Cc1ccc(O)cc1)C(=O)O [DADLE, Tyr-D-Ala-Gly-Phe-D-Leu-enkephalin] | not as striking at any time point | 3 | 20% | 3 | 20% | 3 | 20% | 3 | 20%
2 | Tyr-D-Ala-Phe-Asp-Val-Val-Gly-NH2 [deltorphin I SEQ ID NO:1] | markedly increased survival time | 12 | 80% | 11 | 73% | 11 | 73% | 11 | 73%
